pKi: −log10 of the molar value.
Each compound was assayed against GST-Bcl-2 (Homo sapiens, UniProt P10415) (assay: Time Resolved-Fluorescence Resonance Energy Transfer (TR-FRET) Bcl-2 binding assay). Conditions: competition with F-Bak peptide probe (100 nM); GST-Bcl-2 1 nM; Tb-anti-GST 1 nM; 3 hours at room temperature; Wang's equation.
Description: Determination of the utility of compounds having Formula (I) as binders to and inhibitors of anti-apoptotic Bcl-2 proteins was performed using the Time Resolved-Fluorescence Resonance Energy Transfer (TR-FRET) Assay. Tb-anti-GST antibody was purchased from Invitrogen (Catalog No. PV4216).
(§1) Representative compounds were serially diluted in dimethyl sulfoxide (DMSO) starting at 50 μM (2× starting concentration; 10% DMSO) and 10 μL were transferred into a 384-well plate. The samples are then mixed on a shaker for 1 minute and incubated for an additional 3 hours at room temperature. For each assay, the probe/antibody and protein/probe/antibody were included on each assay plate as negative and positive controls, respectively. Fluorescence was measured on the Envision (Perkin Elmer) using a 340/35 nm excitation filter and 520/525 (F-Bak peptide) and 495/510 nm (Tb-labeled anti-Histidine antibody) emission filters.
as §1, with “The” for “Representative compounds were serially diluted in dimethyl sulfoxide (DMSO) starting at 50 μM (2× starting concentration; 10% DMSO) and 10 μL were transferred into a 384-well plate. The”, “were” for “are”
The inhibition constant (Ki) is the dissociation constant of an enzyme-inhibitor complex or a protein/small molecule complex, wherein the small molecule is inhibiting binding of one protein to another protein. So a large Ki value indicates a low binding affinity and a small Ki value indicates a high binding affinity.

Sequence of GST-Bcl-2 (P10415 whole entry): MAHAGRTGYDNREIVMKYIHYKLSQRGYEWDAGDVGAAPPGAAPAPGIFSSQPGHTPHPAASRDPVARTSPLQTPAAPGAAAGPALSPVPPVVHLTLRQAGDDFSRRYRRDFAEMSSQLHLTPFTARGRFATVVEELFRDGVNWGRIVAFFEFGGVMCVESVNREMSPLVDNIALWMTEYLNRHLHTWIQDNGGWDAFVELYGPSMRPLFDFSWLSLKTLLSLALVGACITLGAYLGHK

SMILES | pKi
CC1(C)CCC(CN2CCN(c3ccc(C(=O)NS(=O)(=O)c4ccc(OC[C@H]5CC[C@](C)(O)CC5)c([N+](=O)[O-])c4)c(Oc4cnc(N)c(Cl)c4)c3)CC2)=C(c2ccc(Cl)cc2)C1 [Example 441, 2-[(6-amino-5-chloropyridin-3-yl)oxy]-4-(4-{[2-(4-chlorophenyl)-4,4-dimethylcyclohex-1-en-1-yl]methyl}piperazin-1-yl)-N-({4-[(trans-4-hydroxy-4-methylcyclohexyl)methoxy]-3-nitrophenyl}sulfonyl)benzamide] | 10.27
CC1(C)CCC(CN2CCN(c3ccc(C(=O)NS(=O)(=O)c4ccc(NC[C@H]5CN(C6CC6)CCO5)c([N+](=O)[O-])c4)c(Oc4cnc(N)c(Cl)c4)c3)CC2)=C(c2ccc(Cl)cc2)C1 [Example 442, 2-[(6-amino-5-chloropyridin-3-yl)oxy]-4-(4-{[2-(4-chlorophenyl)-4,4-dimethylcyclohex-1-en-1-yl]methyl}piperazin-1-yl)-N-{[4-({[(2S)-4-cyclopropylmorpholin-2-yl]methyl}amino)-3-nitrophenyl]sulfonyl}benzamide] | > 11.00
CC1(C)CCC(CN2CCN(c3ccc(C(=O)NS(=O)(=O)c4cnc(OCC5(F)CCC(C)(O)CC5)c(Cl)c4)c(Oc4cnc(N)c(Cl)c4)c3)CC2)=C(c2ccc(Cl)cc2)C1 (stereo not drawn) [Example 443, 2-[(6-amino-5-chloropyridin-3-yl)oxy]-N-({5-chloro-6-[(trans-1-fluoro-4-hydroxy-4-methylcyclohexyl)methoxy]pyridin-3-yl}sulfonyl)-4-(4-{[2-(4-chlorophenyl)-4,4-dimethylcyclohex-1-en-1-yl]methyl}piperazin-1-yl)benzamide] | 10.54
CC1(C)CCC(CN2CCN(c3ccc(C(=O)NS(=O)(=O)c4cnc(OCC5(F)CCC(C)(O)CC5)c(Cl)c4)c(Oc4cnc(N)c(Cl)c4)c3)CC2)=C(c2ccc(Cl)cc2)C1 (stereo not drawn) [Example 444, 2-[(6-amino-5-chloropyridin-3-yl)oxy]-N-({5-chloro-6-[(cis-1-fluoro-4-hydroxy-4-methylcyclohexyl)methoxy]pyridin-3-yl}sulfonyl)-4-(4-{[2-(4-chlorophenyl)-4,4-dimethylcyclohex-1-en-1-yl]methyl}piperazin-1-yl)benzamide] | 10.74
CC1(C)CCC(CN2CCN(c3ccc(C(=O)NS(=O)(=O)c4cnc(OCC5CCC(C)(O)CC5)c(Cl)c4)c(Oc4cccc5[nH]nc(N)c45)c3)CC2)=C(c2ccc(Cl)cc2)C1 (stereo not drawn) [Example 445, 2-[(3-amino-1H-indazol-4-yl)oxy]-N-({5-chloro-6-[(trans-4-hydroxy-4-methylcyclohexyl)methoxy]pyridin-3-yl}sulfonyl)-4-(4-{[2-(4-chlorophenyl)-4,4-dimethylcyclohex-1-en-1-yl]methyl}piperazin-1-yl)benzamide] | > 11.00
CC1(C)CCC(CN2CCN(c3ccc(C(=O)NS(=O)(=O)c4cnc(OCC5CCC(C)(O)CC5)c(Cl)c4)c(Oc4cccc5[nH]nc(Cl)c45)c3)CC2)=C(c2ccc(Cl)cc2)C1 (stereo not drawn) [Example 446, N-({5-chloro-6-[(trans-4-hydroxy-4-methylcyclohexyl)methoxy]pyridin-3-yl}sulfonyl)-2-[(3-chloro-1H-indazol-4-yl)oxy]-4-(4-{[2-(4-chlorophenyl)-4,4-dimethylcyclohex-1-en-1-yl]methyl}piperazin-1-yl)benzamide] | 10.82
CCC1(O)CCC(CNc2ccc(S(=O)(=O)NC(=O)c3ccc(N4CCN(CC5=C(c6ccc(Cl)cc6)CC(C)(C)CC5)CC4)cc3Oc3cnc(N)c(Cl)c3)cc2[N+](=O)[O-])CC1 (stereo not drawn) [Example 447, 2-[(6-amino-5-chloropyridin-3-yl)oxy]-4-(4-{[2-(4-chlorophenyl)-4,4-dimethylcyclohex-1-en-1-yl]methyl}piperazin-1-yl)-N-[(4-{[(cis-4-ethyl-4-hydroxycyclohexyl)methyl]amino}-3-nitrophenyl)sulfonyl]benzamide] | 10.54
